According to patent US20150024001A1, “MOLECULAR MIMIC MUCOSAL AIDS VACCINE” (priority 2011, published 2015):

Experiments:
UAE-1 = settings: cited from earlier work
gp140 = settings: subcutaneous booster in monkeys first immunized with Hub-TGDK-UPA-CpGODN-gp140-Fetuin, after anti-gp140 titer had decreased (about one year and a half)
Excerpt: The resulting modified gene of SIVmac239 Env was transferred into simian Vero cells and a monomer and a trimer of SIVmac239 Env gp140 were constructed.

Row | Compound | mode of inhibition of UAE-1 (UAE-1) | production of anti-gp140 antibodies after booster (gp140)
1 | NCCNC(=O)[C@H](CCCCNC(=O)[C@H](CCCCNC(=O)c1cc(O)c(O)c(O)c1)NC(=O)c1cc(O)c(O)c(O)c1)NC(=O)[C@H](CCCCNC(=O)c1cc(O)c(O)c(O)c1)NC(=O)c1cc(O)c(O)c(O)c1 [TGDK, N^2,N^6-bis[N^2,N^6-bis(3,4,5-trihydroxybenzoyl)-L-lysyl]-N-(2-aminoethyl)-L-lysine amide] | competitive inhibitor | –
2 | Fetuin | – | production of anti-gp140 antibodies was confirmed
